The values that follow come from patent US7968577B2 (Bristol-Myers Squibb Company, priority 2006, dated 2011).

The assay has as its system AP-1 induced transcriptional activity. Briefly: Cellular Transrepressional Assay: AP-1 luciferase reporter in PMA-activated A549 cells. The format is cell-based. The conditions noted are these: Homo sapiens; for Emax: A549, 7 h, maximum inhibition, Cellular Transrepression Assay, read-out: AP-1 Max % inh (Cellular Transrepression Assay); for EC50: A549, Cellular Transrepression Assay. The method, then:
Cellular Transrepressional Assay
To measure the ability of test molecules to inhibit AP-1 induced transcriptional activity we utilized an A549 cell which was stably transfected with a plasmid containing 7× AP-1 DNA binding sites (pAP-1-Luc plasmid, Stratagene Co. La Jolla, Calif.) followed by the gene for luciferase. Cells were activated with 10 ng/ml of […] (PMA) plus or minus test molecules for 7 hours. After 7 hours a luciferase reagent was added to measure luciferase enzymatic activity in the cell. After a 10 minute incubation of luciferase reagent with cells, luminescence was measured in a TopCount luminescence counter. Repression of AP-1 activity was calculated as the percentage decrease in the signal induced by PMA alone. Test molecules were analyzed in the concentration range from 0.1 nM to 40 μM. EC50s were determined by using standard curve fitting methods such as Excel fit (Microsoft Co.).

Turning to `COc1cccc(C(c2ccccc2)C(C)(C)C(=O)Nc2nccs2)c1` (centres unmarked) [Example 91, 2,2-dimethyl-3-(3-(methyloxy)phenyl)-3-phenyl-N-1,3-thiazol-2-ylpropanamide], the Emax came to 23.2%. Take `COc1ccccc1C(c1ccccc1)C(C)(C)C(=O)Nc1ncc(C)s1` (centres unmarked) [Example 82, 2,2-dimethyl-3-(2-(methyloxy)phenyl)-N-(5-methyl-1,3-thiazol-2-yl)-3-phenylpropanamide]: the Emax was 25.9%.

With `CCOC(=O)c1sc(NC(=O)C(C)(C)C(c2ccccc2)c2ccc(O)cc2)nc1C` (centres unmarked) [Example 218, ethyl 2-((3-(4-hydroxyphenyl)-2,2-dimethyl-3-phenylpropanoyl)amino)-4-methyl-1,3-thiazole-5-carboxylate], the Emax came out at 38%. Turning to `CC(C)(C(=O)Nc1nncs1)C(c1ccccc1)c1ccc(-c2ccccc2)cc1` (centres unmarked) [Example 402, 3-(4-biphenylyl)-2,2-dimethyl-3-phenyl-N-1,3,4-thiadiazol-2-ylpropanamide], the Emax is 26.5% and the concentration for a half-maximal effect (EC50) came to 7.9 nM.

Consider `CC(C)(C(=O)Nc1nncs1)[C@H](c1ccccc1)c1ccc(O)cc1` [Example 340, (3R)-3-(4-hydroxyphenyl)-2,2-dimethyl-3-phenyl-N-1,3,4-thiadiazol-2-ylpropanamide], for which the Emax amounted to 57% and the 50% effective concentration (EC50) is 90.3 nM. Consider `CC(C)CC(c1ccc(-c2ccc(OC(C)C)cc2)cc1)C(C)(C)C(=O)Nc1nccs1` (centres unmarked) [Example 400, 2,2,5-trimethyl-3-(4′-((1-methylethyl)oxy)-4-biphenylyl)-N-1,3-thiazol-2-ylhexanamide], for which the Emax was found to be 46.1% and the EC50 was determined as 267 nM. The matching figures for `CC(C)(C(=O)Nc1nncs1)C(c1ccccc1)c1ccc(-c2ccc(C(=O)NC3CC3)cc2)cc1` (centres unmarked) [Example 425, N-cyclopropyl-4′-(2,2-dimethyl-3-oxo-1-phenyl-3-(1,3,4-thiadiazol-2-ylamino)propyl)-4-biphenylcarboxamide]: 28.7% and 3.63 nM. Regarding `CCOC(=O)c1csc(NC(=O)C(C)(C)[C@H](c2ccccc2)c2ccc(OC)cc2)n1` [Example 264, ethyl 2-((2,2-dimethyl-3-(4-(methyloxy)phenyl)-3-phenylpropanoyl)amino)-1,3-thiazole-4-carboxylate], the Emax worked out at 58.6% and the EC50 stood at 772 nM. Consider `CC(C)(c1ccccc1)c1csc(NC(=O)C(C)(C)C(c2ccccc2)c2ccccc2)n1` [Example 181, 2,2-dimethyl-N-(4-(1-methyl-1-phenylethyl)-1,3-thiazol-2-yl)-3,3-diphenylpropanamide], for which the Emax is 28.9%. `CC(C)(C(=O)Nc1nccs1)[C@@H](c1ccccc1)c1ccc(OC(=O)C2CCCO2)cc1` (stereo partly drawn) [Example 366, 4-((1S)-2,2-dimethyl-3-oxo-1-phenyl-3-(1,3-thiazol-2-ylamino)propyl)phenyl tetrahydro-2-furancarboxylate]: the Emax was 32.6% and the response was half-maximal at 20 nM (EC50). As for `Cc1csc(NC(=O)C(C)(C)C(c2ccccc2)c2cccc(O)c2)n1` (centres unmarked) [Example 198, 3-(3-hydroxyphenyl)-2,2-dimethyl-N-(4-methyl-1,3-thiazol-2-yl)-3-phenylpropanamide], the Emax stood at 25.8%. With `CC(=O)c1ccc(-c2ccc(C(c3ccccc3)C(C)(C)C(=O)Nc3nncs3)cc2)cc1` (centres unmarked) [Example 406, 3-(4′-acetyl-4-biphenylyl)-2,2-dimethyl-3-phenyl-N-1,3,4-thiadiazol-2-ylpropanamide], the Emax turned out to be 29.4% and the EC50 is 39 nM. With `CC(C)(C(=O)Nc1nccs1)C(c1ccccc1)c1ccc(O)cc1` (centres unmarked) [Example 209, 3-(4-hydroxyphenyl)-2,2-dimethyl-3-phenyl-N-1,3-thiazol-2-ylpropanamide], the Emax came out at 46.9% and the concentration for a half-maximal effect (EC50) came to 86.5 nM.

Regarding `Cc1cnc(NC(=O)C(C)(C)C(c2ccccc2)c2cccc(O)c2)s1` (centres unmarked) [Example 199, 3-(3-hydroxyphenyl)-2,2-dimethyl-N-(5-methyl-1,3-thiazol-2-yl)-3-phenylpropanamide], the Emax is 31.1%.

For `CC(C)(C(=O)Nc1nc(Cc2ccc(-c3ccncc3)cc2)cs1)C(c1ccccc1)c1ccccc1` [Example 299, 2,2-dimethyl-3,3-diphenyl-N-(4-((4-(4-pyridinyl)phenyl)methyl)-1,3-thiazol-2-yl)propanamide], the Emax turned out to be 69.3% and a half-maximal effect (EC50) was put at 13.3 nM. Consider `CC(C)Cc1ccc(-c2ccc(C(CC(C)C)C(C)(C)C(=O)Nc3nccs3)cc2)cc1` (centres unmarked) [Example 396, 2,2,5-trimethyl-3-(4′-(2-methylpropyl)-4-biphenylyl)-N-1,3-thiazol-2-ylhexanamide], for which the Emax came to 31.5% and the EC50 is 227 nM.

Turning to `CC(C)(C(=O)Nc1nc2ccc(Cl)cc2s1)C(c1ccccc1)c1ccc(O)cc1` (centres unmarked) [Example 220, N-(6-chloro-1,3-benzothiazol-2-yl)-3-(4-hydroxyphenyl)-2,2-dimethyl-3-phenylpropanamide], the Emax worked out at 36.2%.

With `CC(C)Oc1ccc(-c2ccc(C(c3ccccc3)C(C)(C)C(=O)Nc3nncs3)cc2)cc1` (centres unmarked) [Example 382, 2,2-dimethyl-3-(4′-((1-methylethyl)oxy)-4-biphenylyl)-3-phenyl-N-1,3,4-thiadiazol-2-ylpropanamide], the Emax is 40.1% and a half-maximal effect (EC50) was put at 28.1 nM. Take `CC(C)c1ccc(-c2ccc(C(c3ccccc3)C(C)(C)C(=O)Nc3nncs3)cc2)cc1` (centres unmarked) [Example 422, 3-(4′-isopropyl-4-biphenylyl)-2,2-dimethyl-3-phenyl-N-1,3,4-thiadiazol-2-ylpropanamide]: the Emax was found to be 33.7% and the EC50 came to 2.7 nM.

Regarding `CC(C)(C(=O)Nc1nncs1)C(c1ccccc1)c1ccc(N2CCCCC2)cc1` (centres unmarked) [Example 236, 2,2-dimethyl-3-phenyl-3-(4-(1-piperidinyl)phenyl)-N-1,3,4-thiadiazol-2-ylpropanamide], the Emax was found to be 38.5% and a half-maximal response (EC50) required 151 nM. The corresponding values for `CC(C)(C(=O)Nc1nccs1)C(c1ccc(N2CCOCC2)cc1)c1cccc(F)c1` (centres unmarked) [Example 228, 3-(3-fluorophenyl)-2,2-dimethyl-3-(4-(4-morpholinyl)phenyl)-N-1,3-thiazol-2-ylpropanamide] are 36.9% and 33.5 nM. Consider `CCOC(=O)c1sc(NC(=O)C(C)(C)C(c2ccccc2)c2ccc(OC)cc2)nc1C` (centres unmarked) [Example 112, ethyl 2-((2,2-dimethyl-3-(4-(methyloxy)phenyl)-3-phenylpropanoyl)amino)-4-methyl-1,3-thiazole-5-carboxylate], for which the Emax turned out to be 20.9%. Consider `COc1ccc(Cc2csc(NC(=O)C(C)(C)C(c3ccccc3)c3cccc(OC)c3)n2)cc1` (centres unmarked) [Example 298, 2,2-dimethyl-3-(3-(methyloxy)phenyl)-N-(4-((4-(methyloxy)phenyl)methyl)-1,3-thiazol-2-yl)-3-phenylpropanamide], for which the Emax turned out to be 78.7% and the EC50 turned out to be 417 nM. On to `CC(C)(C(=O)Nc1nc(Cc2ccc(-c3ccncc3)cc2)cs1)C(c1ccc(O)cc1)c1ccc(O)cc1` [Example 356], for which the Emax came out at 61.1% and the EC50 is 736 nM. The corresponding values for `CC(C)(C(=O)Nc1nccs1)[C@@H](c1ccccc1)c1ccc(O)c(C#N)c1` [Example 359, (3S)-3-(3-Cyano-4-hydroxyphenyl)-2,2-dimethyl-3-phenyl-N-1,3-thiazol-2-ylpropanamide] are 65.2% and 278 nM. The corresponding values for `COc1ccc(Cc2csc(NC(=O)C(C)(C)C(c3ccccc3)c3ccccc3)n2)cc1` [Example 297, 2,2-dimethyl-N-(4-((4-(methyloxy)phenyl)methyl)-1,3-thiazol-2-yl)-3,3-diphenylpropanamide] are 77.3% and 262 nM. Regarding `CC(C)(C(=O)Nc1nc(CCc2ccccc2)cs1)C(c1ccccc1)c1cccc(O)c1` (centres unmarked) [Example 203, 3-(3-hydroxyphenyl)-2,2-dimethyl-3-phenyl-N-(4-(2-phenylethyl)-1,3-thiazol-2-yl)propanamide], the Emax was determined as 35.1%. In the case of `CC(C)(C(=O)Nc1nc(Cc2ccc(-c3ccncc3)cc2)cs1)C(c1ccccc1)c1ccc(F)cc1` (centres unmarked) [Example 302, 3-(4-fluorophenyl)-2,2-dimethyl-3-phenyl-N-(4-((4-(4-pyridinyl)phenyl)methyl)-1,3-thiazol-2-yl)propanamide], the Emax turned out to be 76.8% and the EC50 came out at 33.3 nM. The matching figures for `CC(C)(C(=O)Nc1nccs1)[C@H](c1ccccc1)c1ccc(N2CCOCC2)cc1` (stereo in doubt) [Example 258, 2,2-dimethyl-3-(4-(4-morpholinyl)phenyl)-3-phenyl-N-1,3-thiazol-2-ylpropanamide]: 42.7% and 10.5 nM.

Consider `CC(C)(C)c1ccc(C(c2ccccc2)C(C)(C)C(=O)Nc2nc(Cc3ccc(-c4ccncc4)cc3)cs2)cc1` (centres unmarked) [Example 303, 3-(4-(1,1-dimethylethyl)phenyl)-2,2-dimethyl-3-phenyl-N-(4-((4-(4-pyridinyl)phenyl)methyl)-1,3-thiazol-2-yl)propanamide], for which the Emax was 75.7% and the half-maximal effective concentration (EC50) was determined as 16.6 nM. `COc1ccc(C(c2ccccc2)C(C)(C)C(=O)Nc2nc(C)c(C)s2)cc1` (centres unmarked) [Example 106, N-(4,5-dimethyl-1,3-thiazol-2-yl)-2,2-dimethyl-3-(4-(methyloxy)phenyl)-3-phenylpropanamide]: the Emax came out at 35.9%. On to `CC(C)(C(=O)Nc1nc(-c2ccc(F)c3ccccc23)cs1)C(c1ccccc1)c1ccccc1` [Example 183, N-(4-(4-fluoro-1-naphthalenyl)-1,3-thiazol-2-yl)-2,2-dimethyl-3,3-diphenylpropanamide], for which the Emax was found to be 65.3%.
